The text below walks through data of a melting point compilation (Tetko et al.; mined from patent text by program, amines drawn as free bases though some values may be those of a salt).

As to `COc1ccc(S(=O)(=O)c2ncoc2C(C)C)cc1`, the melting point was in the range of 98 to 100 °C.
For `COC(=N)N1CCC(c2nn(C)c3cc(F)ccc23)CC1` the value was 132 to 135 °C.
In turn, `COc1ccc(OCc2ccccn2)cc1/C=C/c1cc(/C=C/c2ccc3cc[nH]c3c2)n[nH]1` had a melting point of 111 to 120 °C.
For `COc1ccnc(CSc2nc3cc(OC(F)(F)C(F)F)ccc3[nH]2)c1OC` the value was 98 to 102 °C.
In the case of `C[C@H](NS(=O)(=O)c1ccc2c(c1)Sc1ccccc1O2)C(=O)O` it was 75 to 85 °C; in that of `O=C1CC=C(c2c[nH]c3cc([N+](=O)[O-])ccc23)CC1`, 175 to 177 °C.
For `O=C(CC(F)=C(F)F)Nc1cccc(C(=O)O)c1` the value was 252 to 255 °C; for `CNc1nc(Cl)cc(NS(=O)(=O)c2ccc(Cl)cc2)n1`, 196 to 198 °C; for `N#CCc1ccc2nc(-c3ccccc3)oc2c1`, 144 °C.
As for `CCc1cc(C(=O)c2ccccc2Cl)c(-n2c(C)nnc2CO)s1`, the melting point fell in the range of 140 to 141 °C.
For `CC(C)N1CCN(c2ccc(OCCCCCCC(O)(Cn3ccnc3)c3ccc(Cl)cc3Cl)cc2)CC1` (stereo not given) the value was 143 to 145 °C; for `COC(=O)C1(CN=Cc2ccccc2)C=CC=CC1` (stereo not given), 86 to 89 °C.
For `CCONC(=O)c1cc(-c2ncc(C(F)(F)F)cc2Cl)ccc1Cl` the value was 162 to 163 °C; for `N[C@H]1C=C(C(=O)O)OC1`, 193 to 195 °C.
For `COc1cc(-n2nc(C(F)(F)F)cc2-c2ccc(S(C)(=O)=O)cc2)ccc1F` the value was 159 to 160 °C; for `COC(=O)c1ccc(N=Cc2cccc(Cl)c2)cn1`, 139 to 142 °C.
Consider `FC1(F)CCN(c2cccc3c2OCCNC3)C1`, for which the melting point came to 54 °C.
In the case of `ClCCCCCOc1ccc(C2=C(c3ccc(OC4CCCCO4)cc3)CCCc3cc(OC4CCCCO4)ccc32)cc1` (stereo not given) it was 110 to 112 °C; in that of `CC(=O)Nc1ccn(C2CCC(COC(C)=O)O2)c(=O)n1` (stereo not given), 210 to 211 °C; in that of `N#Cc1ccc(-c2ccc(C#N)c(N)c2)cc1N`, 243 °C.
For `CCc1ccc2c(c1)C=Cc1cc(C)ccc1C2c1cn(Cc2ccc(C(=O)O)o2)c(=O)[nH]c1=O` (stereo not given) the value was 253 °C; for `O=S(=O)(NC1CCN(C2CCCCC2)CC1)c1ccc(Nc2ccnc3cc(Cl)ccc23)cc1`, 192 to 193 °C; for `C=CCOCc1c(C=O)sc2c(=O)c(C(=O)NCc3ccc(Cl)cc3)cn(C)c12`, 144 to 147 °C.
In the case of `O=C(Cl)c1cc(C(=O)Cl)[nH]n1` it was 89 to 91 °C; in that of `CCCc1c(OCCCOc2cc(O)c(-c3ccc(F)cc3)cc2CC)cccc1C(=O)c1ccccc1C(=O)O`, 50 to 52 °C; in that of `C=C(C)COc1ccc(NC(C)=O)c(C)c1C`, 154 to 156 °C.
In the case of `NS(=O)(=O)c1ccc(-c2c(F)c(F)c(F)c(F)c2-c2ccc(F)cc2)cc1`, the melting point is 202 to 203 °C.
With `CC(C)(C)OC(=O)N1CCN(C2CCN(c3ccc(N)cc3C#N)CC2)CC1`, the melting point was determined as 172 °C.
For `Nc1ccc(-c2c(Cc3ccccc3)sc3ncnc(N)c23)cc1` the value was 208 to 210 °C.
The molecule `Cn1c(CCNS(C)(=O)=O)nnc1NCCCOc1cccc(CN2CCCCC2)c1` showed a melting point of 105 to 106 °C.
For `O=C1N(C2CCCCC2)CC(CN2CCC(O)(c3ccccc3)CC2)C1(c1ccccc1)c1ccccc1` (stereo not given) the value was 179 to 184 °C; for `CCOC(=O)c1c(S(C)(=O)=O)c(N=O)c2ccccn12`, 143 to 144 °C; for `N=C(N)c1ccc(-n2ccn(-c3ccc(C=CC(=O)O)cc3)c2=O)cc1`, above 350 °C.
For `Cc1ccc2c(c1NC(=O)CC1c3ccccc3Oc3ccccc31)OC(C)C2` (stereo not given) the value was 290 to 291 °C.
For `Cc1cnc2c(c1)nc(C)n2-c1ccccc1` the value was 77 to 79 °C.
In turn, `Cn1nc(C(=O)O)nc1CCCC(O)=S` gave a melting point of 118 to 120 °C.
In the case of `FC(F)(F)c1cccc2c1[nH]c1c2ccc2cc[nH]c21` it was above 250 °C; in that of `CNCCn1nc(N)c2cc3cc(OC)ccc3nc21`, 142 to 144 °C.
In the case of `O=C(O)c1cc(OCCCCCCc2cccc(O)c2O)ccc1O` it was 159 to 161 °C.
In the case of `CSc1cc(C)c(O)cc1C`, the melting point is 98 to 99 °C.
For `COc1cc(COc2nn(-c3ccccc3)cc2/C=C/C#N)ccc1OCc1nc(-c2ccccc2)oc1C` the value was 184 to 185 °C.
Turning to `c1ccc2c3c([nH]c2c1)CCS3`, the melting point fell in the range of 152 to 155 °C.
In the case of `Nc1cc(C(F)(F)F)ccc1N(N)C=O` it was 121 to 122 °C.
In the case of `Brc1ccc(C=Cc2cccc3ccccc23)cc1`, the melting point was 106 °C.
In the case of `[N-]=[N+]=NC(=O)C=Cc1cccc2[nH]ccc12` it was 105 to 106 °C; in that of `O=C(O)c1ccccc1I(=O)=O`, 226 to 234 °C; in that of `CC(C)c1cccc(C(C)C)c1NC(=O)CNC(c1ccccc1)c1ccc([N+](=O)[O-])cc1` (stereo not given), 177 to 179 °C.
In the case of `COC(=O)c1scc(Br)c1N` it was 58 to 60 °C; in that of `CC(C)C[C@H](NC(=O)[C@H](Cc1c[nH]cn1)NC(=O)[C@H](Cc1cccc2ccccc12)NC(=O)OCc1ccccc1)[C@@H](O)CC(=O)OCc1ccccc1`, 102 to 109 °C; in that of `CN(C)CCC(O)c1ccccc1` (stereo not given), 45 to 46 °C.
In the case of `CCC(=O)OC(C#N)C(C#N)c1cccc(OC)c1` (stereo not given) it was 73 °C.
`CN1CC=C(C(=O)N2c3ccccc3NC(=O)c3cscc32)CC1` had a melting point of 210 to 212 °C.
In the case of `CCOC(=O)Cc1c(C(=O)O)c(C)c(C(=O)c2ccc(Cl)cc2)n1C` it was 197 to 198 °C.
Turning to `CN(C)C(=O)C(CCO)C1(C)CCCc2c1[nH]c1ccccc21` (stereo not given), the melting point was in the range of 145 to 146 °C.
For `CS(=O)(=O)c1nccn1CC(=O)O` the value was 218 to 219 °C; for `CC(C)(C)OC(=O)N1CCC(Nc2cccc(NC(=O)c3ccc(F)cc3)n2)CC1`, 82.7 °C.
In the case of `Cc1ccc2c(c1)c(Cl)c(C#N)c(=O)n2Cc1ccccc1` it was 219 °C; in that of `COc1cc(-c2nc3ccc(OC(F)(F)F)cc3[nH]2)ccc1O`, 188 to 190 °C; in that of `COc1cccc(CN2C(=O)N(c3cnn(Cc4c(C)noc4C)c3)C(=O)C2(C)C)c1`, 107 to 108 °C.
As to `Clc1cc2nc(Cl)n(Cc3ccccc3)c2cc1Cl`, the melting point was in the range of 175 to 176 °C.
For `Cc1nn(C)c(Oc2ccc([N+](=O)[O-])cc2[N+](=O)[O-])c1C(=O)c1ccc(Cl)cc1Cl` the value was 190 to 192 °C; for `COc1ccc(-c2ccc(C(C)C=O)cc2F)cc1` (stereo not given), 55 to 59 °C.
For `Cc1cc2c(c3occ(-c4ccc(C(C)C)cc4)c13)CCC2` the value was 70 to 72 °C; for `Cc1ncc([N+](=O)[O-])n1CCN1C(=O)NC2(C1=O)C1CC3CC(C1)CC2C3` (stereo not given), 276 to 280 °C.
`OCCOc1ccc2nc(S)sc2c1` returned a melting point of 162 to 165 °C.
In the case of `CN(C)C=CC(=O)C(=O)c1ccccc1` it was 88 °C.
In the case of `NC(=O)c1cc2c(cc1OCC1CCCCC1)CCCCC2N` (stereo not given) it was 170 to 172 °C; in that of `Nc1ccc(C(=O)NNCCC(=O)OCc2ccccc2)cc1`, 96 to 97 °C.
`Cc1c(C(=O)N[C@H](C)[C@](O)(Cn2cncn2)c2ccc(F)cc2F)cnn1-c1ccc(F)cc1F` displayed a melting point of 208 to 209 °C.
For `COc1ccc(Cn2c(=O)c(C#N)c(Cl)c3cc(F)cnc32)cc1` the value was 195 °C.
In the case of `Nc1ncnc2c1c(-c1cccc(O)c1)cn2C1CC(CN2CCCC2)C1` (stereo not given) it was 193 to 194 °C.
With `N=C(N)Nc1nc(-c2ccccc2[N+](=O)[O-])c2cc(Cl)ccc2n1`, the melting point was 150 °C.
In the case of `CC(C)n1nc(-c2sc(C(N)=O)nc2-c2ccc(F)cc2)ccc1=O` it was 226 to 228 °C; in that of `O=C(NN=Cc1ccc([N+](=O)[O-])o1)c1ncn2ccccc12`, 300 °C.
For `Cn1ncnc1COc1nc2c(cc1-c1ccoc1)nnn2-c1ccccc1F` the value was 145 to 146 °C.
Turning to `CCCCN1C(C)=C(C(=O)OCC)C(c2cc([N+](=O)[O-])ccc2OCC(=O)OCC)C(C(=O)OCC)=C1C`, the melting point lay in the range of 88 to 90 °C.
For `O=Cc1cc(-n2cnnn2)cc2ccoc12` the value was 174 to 175 °C.
Turning to `CN(C1CCN(CCC(F)(F)F)CC1)S(=O)(=O)c1ccc(Nc2nccc(Nc3ccc(F)c(F)c3)n2)cc1`, the melting point was 202 to 203 °C.
For `CCOC(=O)C1=C(C)NC(SCc2ccccc2)=NC1c1cccc([N+](=O)[O-])c1` (stereo not given) the value was 129 to 130 °C.
Take `COc1ccc(Nc2nc(-c3cccc(C(=O)Nc4ccc(C(=O)O)cc4)c3)cn3ccnc23)cc1OC`: the melting point is above 250 °C.
For `CCC(C)(C)c1cc(-c2ccc(C=C3SC(=O)NC3=O)cn2)cc2nc(C)oc12` the value was 312 °C.
In the case of `CCCCn1c(=O)c(NC(=O)Nc2c(C(C)C)cc(CO)cc2C(C)C)c(-c2cccc(OC)c2)c2cccnc21` it was 122 to 123 °C; in that of `COC(=O)c1ccc(NC(=O)C(N)c2ccc3c(c2)C(C)(C)CCC3(C)C)s1` (stereo not given), 110 to 112 °C.
In the case of `CO/C=C1/C(=O)NC(=O)c2ccc(I)cc21` it was 120 to 121 °C.
For the molecule `Nc1cc(Sc2cccc3cnccc23)c(F)cc1[N+](=O)[O-]`, the melting point lay within 217 to 220 °C.
`CCOc1ccc(C(=O)Nc2ccccc2)cc1NC(=S)Nc1cc(Cl)cc(Cl)c1`: the melting point was 201 to 202 °C.
For `C=CCN1CCNC(=O)c2cccc([N+](=O)[O-])c21` the value was 80 to 82 °C; for `COc1cc2c3ccc(OC)c(OC)c3n(S(C)(=O)=O)c2cc1OC`, 164 to 165 °C; for `O=C(O)CCCCN1C(=O)c2cccc([N+](=O)[O-])c2C1=O`, 158 to 160 °C.
For `O=C(O)CCc1cn(Cc2ccc(Cl)cc2Cl)c2ccccc12` the value was 134 to 136 °C.
